Series [1] has as its system methicillin susceptible strain of Staphylococcus aureus. Nature of the series: Neutropenic staphylococcal thigh infection model, Levofloxacin with or without ACT (Example 3). Type of series: in vivo. The settings on record: mice, dose-response study, read-out: ED50 (dose that induces a half maximal decline in bacterial density). An excerpt: An established experimental model of staphylococcal thigh infection in a neutropenic thigh infection model was used and neutropenia will be induced with cyclophosphamide. The thigh infection model provides a sensitive experimental system for initial studies of antimicrobial efficacy in a mammalian system. This model is the most standardised for the evaluation of antimicrobial-microbial interactions combined with antimicrobial pharmacokinetics assessed in serum and tissues samples.
The challenge isolate was methicillin susceptible strain of Staphylococcus aureus is and both thighs were inoculated. Treatment was initiated 2 h after inoculation, thighs was harvested after 26 h and the bacterial density (colony forming units, CFU) in the excised tissue was determined. An initial dose finding study was performed to define the LEV ED50 (the dose that induces a half maximal decline in bacterial density). Within the study, LEV was be dosed intraperitoneal at 20 mg/kg.
The cluster composition investigated was as detailed in Example 1. […]
The bacterial density in the thighs harvested from the various groups was determined by growing a diluted sample of the excised tissue, homogenized in sterile PBS, on a plate with growth medium and counting the number of CFU.

For series [2], the system named is T. saginata and Taenia solium (pork tapeworm) infection. Conditions: in vivo; cited from earlier work.
Series [3] can be described thus: Tissue specific uptake of Evans Blue in thigh muscle with ACT (Example 2, Study 1). Conditions: for EB ratio of the left (treated) to right (untreated) thigh muscle, average±SD: 30 min after treatment; for increase in the uptake upon ACT treatment: US insonated tissue vs. untreated. The class given is in vivo. As to the method: The tissue specific uptake of Evans Blue (EB, a fluorescent dye) has been investigated in a mouse model. Under physiologic conditions, the endothelium is impermeable to albumin, and Evans blue bound albumin remains confined within blood vessels. Thus, Evans blue is often used as a model compound in drug delivery studies [Bohmer et al., J Controlled Release, 148, Issue 1, 2010, pp. 18-24].
Female Balb/c nude mice were used. Before treatment, the mice were administered surgical anesthesia by subcutaneous injection of a mix of Fentanyl (0.05 mg/kg), Midazolam (5 mg/kg), and Medetomidine (0.5 mg/kg). An intravenous cannula (BD Neoflon™ 24 GA) was placed in the tail vein. Patency was verified by injection of a slight amount of 0.9% sodium chloride for injection after which a small amount of heparin (10 U/ml) was injection to prevent clotting. The hub of the cannula was filled with 0.9% sodium chloride for injection to eliminate any dead space and closed with a cap. The cannula was secured to the tail with surgical tape.
Evans Blue solution (50 mg EB/kg) was injected i.v. followed immediately by 2 ml/kg of the cluster dispersion as detailed in Example 1. Two groups where compared (N=3 for each group): 1) EB+cluster dispersion and 2) EB+cluster dispersion+Activation and Enhancement ultrasound insonation.
The left hind limb of the mouse was placed in a water bath with two US transducers poised for insonation of the left thigh. Ultrasound Activation insonation was provided by a VScan clinical ultrasound scanner (GE Healthcare) with a 2 MHz probe for 45 seconds (MI=0.8) starting from the injection time. This was immediately followed by the Enhancement step comprising 5 minutes 500 kHz ultrasound insonation (MI=0.2) using a single element transducer (Imasonic SAS). Thirty minutes after treatment the animals were sacrificed, tissue samples; thigh muscle from the treated (left) leg and thigh muscle from the contra lateral untreated leg, were harvested and Evans Blue content extracted and quantified. The concentration in the treated thigh muscle was divided by the concentration in the untreated thigh muscle for each animal (matched pair) to provide a dimensionless ratio of the increased uptake in the treated muscle. A one-way ANOVA was applied to the data.

Usually ED50 stands for the dose at which the effect has come halfway, by size or by number of responders. As to `C[C@H]1COc2c(N3CCN(C)CC3)c(F)cc3c(=O)c(C(=O)O)cn1c23` [LEV, Levofloxacin], the ED50 in series [1] was roughly 24 mg/kg.

Regarding `O=C(Nc1ccc([N+](=O)[O-])cc1Cl)c1cc(Cl)ccc1O` [Niclosamide], the cure rates entry in series [2] is “approximately 90%”.

As for `Cc1cc(-c2ccc(/N=N/c3ccc4c(S(=O)(=O)O)cc(S(=O)(=O)O)c(N)c4c3O)c(C)c2)ccc1/N=N/c1ccc2c(S(=O)(=O)O)cc(S(=O)(=O)O)c(N)c2c1O` [EB, Evans Blue], the “EB ratio of the left (treated) to right (untreated) thigh muscle, average±SD” value in series [3] (EB 50 mg/kg i.v. + cluster dispersion 2 ml/kg + Activation and Enhancement US insonation) is 2.0±0.3; in series [3] (EB 50 mg/kg i.v. + cluster dispersion 2 ml/kg, no US insonation) it was 1.1±0.2. The “increase in the uptake upon ACT treatment” value in series [3] is on record as “about 100%”; in series [3] (listed as Evans Blue), 100%.

(Values after US20230211020A1, “TREATMENT OF INFECTIONS” (ACT Therapeutics Ltd, priority 2020, published 2023).)
